Experimental data as given in ChEMBL document CHEMBL2074571, “The mouse Bcrp1/Mxr/Abcp gene: amplification and overexpression in cell lines selected for resistance to topotecan, mitoxantrone, or doxorubicin” (Cancer Res, 1999).

How the values were obtained:
Assay type in all cases: functional, cell-based
[1] = target: T1, Broad substrate specificity ATP-binding cassette transporter ABCG2 (Mus musculus, UniProt Q7TMS5); assay: TP_TRANSPORTER: increase in mitoxantrone intracellular accumulation (Mitoxantrone: 20 uM, GF120918: 2 uM) in MEF3.8, M32 and T6400 cells; settings: mef3.8;m32;t6400, 2 µM
T1 sequence (Q7TMS5 whole entry): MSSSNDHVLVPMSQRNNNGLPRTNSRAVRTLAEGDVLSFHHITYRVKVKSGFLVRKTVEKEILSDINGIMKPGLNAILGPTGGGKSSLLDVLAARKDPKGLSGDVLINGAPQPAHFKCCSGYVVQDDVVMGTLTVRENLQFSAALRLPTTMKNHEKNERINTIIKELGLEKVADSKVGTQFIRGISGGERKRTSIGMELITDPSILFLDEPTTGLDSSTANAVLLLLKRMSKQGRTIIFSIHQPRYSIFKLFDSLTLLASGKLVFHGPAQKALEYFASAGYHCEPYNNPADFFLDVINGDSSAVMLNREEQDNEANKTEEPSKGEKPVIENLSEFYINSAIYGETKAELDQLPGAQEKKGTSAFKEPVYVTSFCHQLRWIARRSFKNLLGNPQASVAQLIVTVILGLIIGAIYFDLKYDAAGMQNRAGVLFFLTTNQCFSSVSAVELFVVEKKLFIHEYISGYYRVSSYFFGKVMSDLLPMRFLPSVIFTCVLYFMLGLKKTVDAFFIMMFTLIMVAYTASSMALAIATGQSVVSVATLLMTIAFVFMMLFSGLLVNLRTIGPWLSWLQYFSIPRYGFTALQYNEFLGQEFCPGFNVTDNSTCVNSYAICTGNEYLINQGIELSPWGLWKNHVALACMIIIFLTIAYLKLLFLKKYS

[2] = target: T1, Broad substrate specificity ATP-binding cassette transporter ABCG2; assay: TP_TRANSPORTER: increase in mitoxantrone intracellular accumulation (Mitoxantrone: 20 uM, GF120918: 2 uM) in KOT52 and D320 cells; settings: kot52;d320, 2 µM
[3] = target: T1, Broad substrate specificity ATP-binding cassette transporter ABCG2; assay: TP_TRANSPORTER: cell accumulation in MEF3.8, M32 and T6400 cells; settings: mef3.8;m32;t6400
[4] = target: T1, Broad substrate specificity ATP-binding cassette transporter ABCG2; assay: TP_TRANSPORTER: cell accumulation in KOT52 and D320 cells

Row | Structure (SMILES) | Activity [1] | Activity [2] | Activity [3] | Activity [4]
1 | COc1cc2c(cc1OC)CN(CCc1ccc(NC(=O)c3cccc4c(=O)c5cccc(OC)c5[nH]c34)cc1)CC2.Cl [ELACRIDAR HYDROCHLORIDE] | inhibitor [+] | inhibitor [+] |  | 
2 | O=C1c2c(O)ccc(O)c2C(=O)c2c(NCCNCCO)ccc(NCCNCCO)c21 [MITOXANTRONE] |  |  | substrate [+] | substrate [+]
